Laboratory results from ChEMBL document CHEMBL3808372, “Identification of quinones as novel PIM1 kinase inhibitors” (Bioorg Med Chem Lett, 2016).

Assays:
[1] = biological target: Serine/threonine-protein kinase pim-1 (Homo sapiens, UniProt P11309); assay: Inhibition of recombinant human Pim1
[2] = Cytotoxicity against human DU145 cells assessed as cell growth inhibition after 72 hrs by Alamar blue assay; assay type: functional, cell-based; settings: DU-145, 72 h

Serine/threonine-protein kinase pim-1, sequence (P11309 whole entry): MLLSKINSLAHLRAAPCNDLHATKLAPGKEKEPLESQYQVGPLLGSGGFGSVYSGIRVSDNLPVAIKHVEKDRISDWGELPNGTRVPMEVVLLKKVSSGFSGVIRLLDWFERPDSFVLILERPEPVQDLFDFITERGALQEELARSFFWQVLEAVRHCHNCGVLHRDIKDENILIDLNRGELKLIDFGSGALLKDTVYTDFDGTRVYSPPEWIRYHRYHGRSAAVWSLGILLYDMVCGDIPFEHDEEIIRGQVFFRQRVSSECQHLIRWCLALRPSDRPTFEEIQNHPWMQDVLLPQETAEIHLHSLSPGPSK

Oc1ccc(O)c2c(O)c3c(O)ccc(O)c3c(O)c12
IC50 [1]: 57.1 µM

COc1c(O)c(O)c2c(c1O)C(=O)c1cc(C)cc(O)c1C2=O
IC50 [2]: 3.93 µM | IC50 [1]: 21.4 µM

O=Cc1cc(O)c2c(c1O)C(=O)C=CC2=O
IC50 [1]: 28 µM

O=C1C=C(CBr)C(=O)c2c(O)ccc(O)c21
IC50 [1]: 27 µM

Cc1cc(O)c2c(c1)C(=O)C=CC2=O [RAMENTACEONE]
IC50 [1]: 28 µM

CC(C)(C)OC1CC(O)CC2C(=O)c3c(O)ccc(O)c3C(=O)C12 (stereo unspecified)
IC50 [2]: 3.21 µM | IC50 [1]: 3.5 µM

CC(C)(C)OC1CC(=O)CC2C(=O)c3cccc(O)c3C(=O)C12 (stereo unspecified)
IC50 [1]: 23.8 µM

COc1cccc2c1C(=O)c1c(O)ccc(O)c1C2=O
IC50 [1]: 11.6 µM

Cc1cc(O)c2c(c1)C(=O)c1cc(O)cc(O)c1C2=O [EMODIN]
IC50 [2]: 2.02 µM | IC50 [1]: 2.5 µM

CC(C)C(C)OC1CC(=O)CC2C(=O)c3c(O)ccc(O)c3C(=O)C12 (stereo unspecified)
IC50 [2]: 4.06 µM | IC50 [1]: 3.6 µM

O=C1C(CO)=C(CO)C(=O)c2c(O)ccc(O)c21
IC50 [1]: 7.4 µM

CC(=O)Oc1ccc(O)c2c1C(=O)C=CC2=O
IC50 [1]: 3 µM
